US5407918A, “16-membered macrolide derivatives and process for producing the same” (Meiji Seika Kaisha, Ltd., priority 1992, dated 1995)
Converted amounts (≈) assume the structure as drawn.

Experiments:
[1] = concentration in serum after oral administration to mice, bioassay; format: in vivo, mice (Jcl:ICR)
Description: The compound (3) was mixed with a 0.2% solution of carboxymethylcellulose to give a concentration of 4 mg/ml and a 1 ml portion of the resulting emulsion was orally administered to 4-week-old male Jcl:ICR mice. Blood was collected from armpit of the mice 30, 60, 120, 240 and 360 minutes after the administration of the test compound (n=2). The collected blood was allowed to stand at room temperature for about 2 hours and centrifuged for 20 minutes with a centrifuge (KUBOTA KS-5000P) to obtain serum. To the serum was added an equivalent volume of 50% CH3 CN-50 mM phosphate (1:1 by volume) buffer (pH 7.0). The resulting mixture served as a serum sample. The concentration of the test compound in the serum sample was measured by the following bioassay method.
One hundred […] of the serum sample was poured into a hole made on a test plate containing 40 ml of MRAPJ medium (6 g/l peptone, 3 g/l yeast extract, 1.5 g/l meat extract, 1 g/l glucose and 15 g/l agar, pH 6.5) supplemented with a solution of M. Iuteus ATCC9341 (1%) and incubated at 32° C. for 18 hours and MIC was measured based on the calibration curve. MOM, MDM and RKM were also tested for comparison. […] Thus a long-pending problem of "low concentration in serum" of 16-membered macrolide antibiotics has been solved. […] Thus this compound is considered as a macrolide derivative showing new pharmacokinetics.
Further, a pharmacokinetics test on the compound (12) of the present invention is carried out in the same manner as described above. Namely, 200 mg/kg of the compound (12) is orally administered to mice and the concentration of this compound in the serum is determined by a bioassay method with the use of M. luteus as a test strain. […] The disadvantage of 16-membered ring macrolide antibiotics, which has been pointed out for a long time, has been thus overcome.

S. aureus MS15009/pMS98 = assay: MIC, agar plate dilution method; format: cell-based; settings: Staphylococcus aureus, MS15009/PMS98, 20 h, read-out: Antimicrobial activity (MIC)
Description: (§1) Antimicrobial activities of the compounds of the present invention were determined by measuring minimum inhibitory concentration (MIC). Minimum inhibitory concentration was determined by the agar plate dilution method in the following manner.
(§2) Test strains were subjected to seed culture using Sensitivity test broth (STB, Nissui Pharmaceutical) except that the strains belonging to the genus Streptococcus, Branhamella and Haemophilus were cultured on blood agar plate. A 5 μl portion of cell suspension of the test strains having about 10^6 CFU/ml was inoculated into Sensitivity disk agar (SDA, Nissui Pharmaceutical) supplemented with 5% horse blood and incubated at 37° C. for 20 hours. Then, MIC was measured. For comparison, MDM and leucomycin A7 (LM-A7) was also tested.

S. aureus MS15009/pMS99 = assay: MIC, agar plate dilution method; format: cell-based; settings: Staphylococcus aureus, MS15009/PMS99, 20 h, read-out: Antimicrobial activity (MIC)
Description: as §1, §2

E. coli NIHJ JC-2 = assay: MIC, agar plate dilution method; format: cell-based; settings: Escherichia coli, NIHJJC2; E. coli NIHJ JC-2; 37° C., 20 hours; read-out: Antimicrobial activity (MIC)
Description: as §1, §2

S. aureus MS15027 = assay: MIC, agar plate dilution method; format: cell-based; settings: Staphylococcus aureus, 37° C., 20 hours, read-out: Antimicrobial activity (MIC)
Description: as §1, §2

S. aureus M133 = assay: MIC, agar plate dilution method; format: cell-based; settings: Staphylococcus aureus, 37° C., 20 hours, read-out: Antimicrobial activity (MIC)
Description: as §1, §2

M. luteus ATCC9341 = assay: MIC, agar plate dilution method; format: cell-based; settings: Micrococcus luteus; M. luteus ATCC9341; 37° C., 20 hours; read-out: Antimicrobial activity (MIC)
Description: as §1, §2

H. influenzae Type b = assay: MIC, agar plate dilution method; format: cell-based; settings: Haemophilus influenzae; H. influenzae Type b; 37° C., 20 hours; read-out: Antimicrobial activity (MIC)
Description: as §1, §2

S. Pyogenes Cook = assay: MIC, agar plate dilution method; format: cell-based; settings: Streptococcus pyogenes, 37° C., 20 hours, read-out: Antimicrobial activity (MIC)
Description: as §1, §2

B. catarrhalis W-0506 = assay: MIC, agar plate dilution method; format: cell-based; settings: Moraxella catarrhalis, W0506, 37° C., 20 hours, read-out: Antimicrobial activity (MIC)
Description: as §1, §2

S. pneumoniae IP692 = assay: MIC, agar plate dilution method; format: cell-based; settings: Streptococcus pneumoniae; S. pneumoniae IP692; 37° C., 20 hours; read-out: Antimicrobial activity (MIC)
Description: as §1, §2

K. pneumoniae PC1602 = assay: MIC, agar plate dilution method; format: cell-based; settings: Klebsiella pneumoniae, 37° C., 20 hours, read-out: Antimicrobial activity (MIC)
Description: as §1, §2

S. epidermidis ATCC14990 = assay: MIC, agar plate dilution method; format: cell-based; settings: Staphylococcus epidermidis, 37° C., 20 hours, read-out: Antimicrobial activity (MIC)
Description: as §1, §2

S. aureus 209P JC-1 = assay: MIC, agar plate dilution method; format: cell-based; settings: Staphylococcus aureus; S. aureus 209P JC-1; 37° C., 20 hours; read-out: Antimicrobial activity (MIC)
Description: as §1, §2

E. faecalis W-73 = assay: MIC, agar plate dilution method; format: cell-based; settings: Enterococcus faecalis, W73; E. faecalis W-73; 37° C., 20 hours; read-out: Antimicrobial activity (MIC)
Description: as §1, §2

S. aureus MS15026 = assay: MIC, agar plate dilution method; format: cell-based; settings: Staphylococcus aureus, 37° C., 20 hours, read-out: Antimicrobial activity (MIC)
Description: as §1, §2

B. catarrhalis W-0500 = assay: MIC, agar plate dilution method; format: cell-based; settings: Moraxella catarrhalis, W0500, 37° C., 20 hours, read-out: Antimicrobial activity (MIC)
Description: as §1, §2

H. influenzae 9334 = assay: MIC, agar plate dilution method; format: cell-based; settings: Haemophilus influenzae; H. influenzae 9334; 37° C., 20 hours; read-out: Antimicrobial activity (MIC)
Description: as §1, §2

S. Pneumoniae Type 1 = assay: MIC, agar plate dilution method; format: cell-based; settings: Streptococcus pneumoniae; S. Pneumoniae Type 1; 37° C., 20 hours; read-out: Antimicrobial activity (MIC)
Description: as §1, §2

S. aureus M126 = assay: MIC, agar plate dilution method; format: cell-based; settings: Staphylococcus aureus; S. aureus M126; 37° C., 20 hours; read-out: Antimicrobial activity (MIC)
Description: as §1, §2

Gram-positive bacteria = assay: antimicrobial activity in vitro (summary in words); format: cell-based; settings: from Tables 2 and 3
Description: as §1, §2

test strains = assay: antimicrobial activity in vitro, comparison in words; format: cell-based; settings: for antimicrobial activity in vitro compared with MOM: data are not shown; for antimicrobial activity compared with LM-A7: except on Haemophilus influenzae, Tables 2 and 3
Description: as §1, §2

For `CO[C@@H]1[C@@H](O[C@@H]2O[C@H](C)[C@@H](O[C@H]3C[C@@](C)(OC)[C@@H](OCCC(C)C)[C@H](C)O3)[C@H](N(C)C)[C@H]2O)[C@@H](CC=O)C[C@@H](C)[C@@H](O)/C=C/C=C/C[C@@H](C)OC(=O)C[C@H]1O` [(12)], the Cmax ([1]; mouse, serum, 200 mg/kg, M. luteus bioassay, read-out: maximum concentration in the serum) was 11500 ng/mL, the “maximum concentration in the serum, comparison in words” value ([1]; versus clarythromycin (CAM) or other 16-membered macrolides) was “comparable to that of CAM” and the MIC (S. aureus MS15009/pMS98) was 0.2 µg/mL (≈ 0.254 µM). For the same molecule, the MIC (S. aureus MS15009/pMS99) was > 100 µg/mL, the MIC (E. coli NIHJ JC-2) was > 100 µg/mL and the MIC (S. aureus MS15027) was 0.39 µg/mL (≈ 0.496 µM). It also gave an MIC (S. aureus M133) of 0.39 µg/mL (≈ 0.496 µM), an MIC (M. luteus ATCC9341) of 0.05 µg/mL (≈ 0.0636 µM) and an MIC (H. influenzae Type b) of 6.25 µg/mL (≈ 7.95 µM). It also gave an MIC (S. Pyogenes Cook) of 0.05 µg/mL (≈ 0.0636 µM), an MIC (B. catarrhalis W-0506) of 0.39 µg/mL (≈ 0.496 µM) and an MIC (S. pneumoniae IP692) of 0.1 µg/mL (≈ 0.127 µM). The MIC (K. pneumoniae PC1602) was > 100 µg/mL, the MIC (S. epidermidis ATCC14990) was 0.39 µg/mL (≈ 0.496 µM) and the MIC (S. aureus 209P JC-1) was 0.1 µg/mL (≈ 0.127 µM). For the same molecule, the MIC (E. faecalis W-73) was 0.39 µg/mL (≈ 0.496 µM), the MIC (S. aureus MS15026) was > 100 µg/mL and the MIC (B. catarrhalis W-0500) was 0.39 µg/mL (≈ 0.496 µM). The MIC (H. influenzae 9334) was 1.56 µg/mL (≈ 1.98 µM), the MIC (S. Pneumoniae Type 1) was 0.1 µg/mL (≈ 0.127 µM) and the MIC (S. aureus M126) was > 100 µg/mL. The “antimicrobial activity on Gram-positive bacteria” value (Gram-positive bacteria) was “strong antimicrobial activity”, the “antimicrobial activity in vitro compared with MOM” value (test strains) was “clearly much superior to MOM” and the “antimicrobial activity compared with LM-A7” value (test strains) was “comparable or superior”.

In the case of `CO[C@@H]1[C@@H](O[C@@H]2O[C@H](C)[C@@H](O[C@H]3C[C@@](C)(OC)[C@@H](OCc4ccccc4)[C@H](C)O3)[C@H](N(C)C)[C@H]2O)[C@@H](CC=O)C[C@@H](C)[C@@H](O)/C=C/C=C/C[C@@H](C)OC(=O)C[C@H]1O` [(16)], the MIC (S. aureus MS15009/pMS98) is reported as 0.2 µg/mL (≈ 0.248 µM), the MIC (S. aureus MS15009/pMS99) is reported as > 100 µg/mL and the MIC (E. coli NIHJ JC-2) is reported as > 100 µg/mL. It also gave an MIC (S. aureus MS15027) of 0.2 µg/mL (≈ 0.248 µM), an MIC (S. aureus M133) of 0.39 µg/mL (≈ 0.484 µM) and an MIC (M. luteus ATCC9341) of 0.05 µg/mL (≈ 0.062 µM). For the same molecule, the MIC (H. influenzae Type b) was 6.25 µg/mL (≈ 7.75 µM), the MIC (S. Pyogenes Cook) was 0.1 µg/mL (≈ 0.124 µM) and the MIC (B. catarrhalis W-0506) was 0.78 µg/mL (≈ 0.968 µM). For the same molecule, the MIC (S. pneumoniae IP692) was 0.1 µg/mL (≈ 0.124 µM), the MIC (K. pneumoniae PC1602) was > 100 µg/mL and the MIC (S. epidermidis ATCC14990) was 0.2 µg/mL (≈ 0.248 µM). The MIC (S. aureus 209P JC-1) was 0.1 µg/mL (≈ 0.124 µM), the MIC (E. faecalis W-73) was 0.39 µg/mL (≈ 0.484 µM) and the MIC (S. aureus MS15026) was > 100 µg/mL. It also gave an MIC (B. catarrhalis W-0500) of 0.78 µg/mL (≈ 0.968 µM), an MIC (H. influenzae 9334) of 3.13 µg/mL (≈ 3.88 µM) and an MIC (S. Pneumoniae Type 1) of 0.1 µg/mL (≈ 0.124 µM). For the same molecule, the MIC (S. aureus M126) was > 100 µg/mL, the “antimicrobial activity on Gram-positive bacteria” value (Gram-positive bacteria) was “strong antimicrobial activity” and the “antimicrobial activity in vitro compared with MOM” value (test strains) was “clearly much superior to MOM”. The “antimicrobial activity compared with LM-A7” value (test strains) was “comparable or superior”.
